Measured values published in patent publication US5032109A, “Electrolytic transdermal delivery of polypeptides” (Drug Delivery Systems Inc., priority 1989, dated 1991).
Structures can show the parent of a compound that is named as a salt.

Experiments:
[1] = from Herkovits et al. 1978, cited from earlier work; for Setschenow constant, for --CH2--: average hydrophobic group; for Setschenow constant, for peptide: average peptide group; for Setschenow constant, sum: peptide plus hydrophobic; for -F.° (free energy of transfer): transfer from water to water plus cosolvent
[2] = Electrical conductivity of urine in diabetes insipidus volunteers wearing Pitressin patches (Model Example 2); type: in vivo, human; settings: powered large patch, 300 units Pitressin, five days
Protocol: Six adult male volunteers each having been diagnosed as having diabetes insipidus are tested. Three are fitted with the large-size human patch, as in Example 2, and the three controls are fitted with drug-loaded, identical patches without batteries.
The drug reservoirs of the large electrolytic patches contain 15 ml (300 units) of Pitressin (Parke-aDavis Co., Morris Plains, N.J.). The return reservoir contains 0.9 percent saline buffered to pH 7.2 with ammonium dihydrogen phosphate.
Urine samples are taken from each subject three times per day for five days.

[3] = Total urine output of beagle dogs wearing lypressin electrolytic patches (Model Example 1); type: in vivo; settings: four beagle dogs, powered patch, 10 ua/cm^2, ten days, Diapid 0.185 mg lypressin/ml
Protocol: Eight beagle dogs are employed. All of them are clipped on the back, washed with castille soap, and fitted with the small animal electrolytic patches of Example 1, four of them without batteries.
The drug reservoir of each patch contains 6 ml. Diapid 50 USP, 0.185 mg lypressin/ml. The return reservoir contains 0.9 percent saline. A current regulator is set to deliver 10 ua/cm^2.
Over a period of ten days the total urine output of each dog is measured by standard techniques.

[4] = parameters: species or system human; settings: in vivo
Source text: Ten adult female volunteers, diagnosed as having hypertension, are chosen for this experiment. All are fitted with the large-size electrolytic transdermal patch, as in Example 2. […] Five control patches have no batteries.

[5] = Blood pressure of hypertensive volunteers wearing atriopeptin patches (Model Example 3); type: in vivo, human; settings: hypertensive female volunteers, powered patches, 0.01M atriopeptin in 0.1M sodium perchlorate, about 10 ua/cm^2
Protocol: Ten adult female volunteers, diagnosed as having hypertension, are chosen for this experiment. All are fitted with the large-size electrolytic transdermal patch, as in Example 2. […] Five control patches have no batteries. […] The blood pressure of the ten subjects is measured four times a day.

| Compound | Setschenow constant, for --CH2-- [1] | Setschenow constant, for peptide [1] | Setschenow constant, sum [1] | -F.° (free energy of transfer) [1] | electrical conductivity of the urine versus control subjects (patches without batteries) [2] | average total urine volume versus control dogs (patches without batteries) [3] | drug delivered per hour [4] | average blood pressure versus controls (patches without batteries) [5] |
| --- | --- | --- | --- | --- | --- | --- | --- | --- |
| C1COCCO1 [Dioxane] | -0.013 | +0.029 | 0.016 | 22 cal/mo | – | – | – | – |
| CCO [Ethanol] | -0.014 | +0.037 | 0.023 | 31 cal/mo | – | – | – | – |
| N=C(N)N [Guanidine hydrochloride, guanidine hydrochloride] | -0.027 | -0.061 | -0.088 | -120 cal/mo | – | – | – | – |
| NC(=O)CC[C@@H]1NC(=O)[C@H](Cc2ccccc2)NC(=O)[C@H](Cc2ccc(O)cc2)NC(=O)[C@@H](N)CSSC[C@@H](C(=O)N2CCC[C@H]2C(=O)N[C@@H](CCCN=C(N)N)C(=O)NCC(N)=O)NC(=O)[C@H](CC(N)=O)NC1=O [Pitressin, vasopressin] | – | – | – | – | significantly higher | – | – | – |
| [I-].[K+] [Potassium iodide] | 0.01 | -0.083 | -0.073 | -100 cal/mo | – | – | – | – |
| CCCNC(N)=O [Propylurea] | – | – | -0.047 | -64 cal/mo | – | – | – | – |
| [Br-].[Na+] [Sodium bromide] | 0.025 | -0.037 | -0.012 | -16 cal/mo | – | – | – | – |
| CCCC(=O)[O-].[Na+] [Sodium butyrate] | – | – | -0.038 | -51 cal/mo | – | – | – | – |
| [Cl-].[Na+] [Sodium chloride] | 0.033 | -0.037 | -0.004 | -5 cal/mo | – | – | – | – |
| [I-].[Na+] [Sodium iodide] | 0.01 | -0.087 | -0.077 | -105 cal/mo | – | – | – | – |
| [O-][Cl+3]([O-])([O-])O [Sodium perchlorate] | 0.021 | -0.097 | -0.076 | -104 cal/mo | – | – | – | – |
| CCC(=O)[O-].[Na+] [Sodium proprionate] | – | – | -0.017 | -23 cal/mo | – | – | – | – |
| NC(N)=O [Urea] | -0.01 | -0.018 | -0.028 | -38 cal/mo | – | – | – | – |
| NCCCC[C@H](NC(=O)[C@@H]1CCCN1C(=O)[C@@H]1CSSC[C@H](N)C(=O)N[C@@H](Cc2ccc(O)cc2)C(=O)N[C@@H](Cc2ccccc2)C(=O)N[C@@H](CCC(N)=O)C(=O)N[C@@H](CC(N)=O)C(=O)N1)C(=O)NCC(N)=O [lypressin] | – | – | – | – | – | significantly lower | – | – |
| atriopeptin | – | – | – | – | – | – | about 200 nanograms of drug per hour | significantly lower |
